This is an account of results in ChEMBL document CHEMBL1201862, “PubChem BioAssay data set” (2004).

Assay in all cases: growth of human tumour cells (NCI), 48 h
Experiment [1] deals with IGROV-1.
Experiment [2] has as its system 786-0.
The test system of experiment [3] is NCI-H522.
Experiment [4] deals with M14.
Experiment [5] deals with OVCAR-3.
For experiment [6], the system named is LOX IMVI.
The subject of experiment [7] is CCRF-CEM.
The subject of experiment [8] is SF-295.
For experiment [9], the system named is HCT-15.
The subject of experiment [10] is Malme-3M.
The test system of experiment [11] is SK-MEL-5.
For experiment [12], the system named is RPMI-8226.
The subject of experiment [13] is HOP-62.
The subject of experiment [14] is MDA-MB-435.
In experiment [15] the test system is UACC-257.
Experiment [16] has as its system MDA-MB-231.
For experiment [17], the system named is HL-60.
Experiment [18] has as its system SK-MEL-2.
Experiment [19] concerns MCF7.
Experiment [20] deals with SF-539.

Each structure is given as a SMILES string.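 Each compound was tested at five concentrations against cells in 96-well plates for 48 hours. GI50 marks 50% less growth.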 Calls of active or inactive are those of the source. No stated cut-off is given here; in the data, active = GI50 up to about 1.1 µM and inactive = higher.

With `O=[N+]([O-])c1ccc(-[n+]2ccc3ccccc3c2)c([N+](=O)[O-])c1`, the GI50 is 3.1 µM (inactive) in experiment [1]; 1.73 µM (inactive) in [2]; 2.1 µM (inactive) in experiment [3]; 4.55 µM (inactive) in experiment [4]; 2.55 µM (inactive) in experiment [5]; 1.95 µM (inactive) in experiment [6]. Further, the GI50 in experiment [7] was 1.54 µM (inactive); in experiment [8], 14.8 µM (inactive); in experiment [9] it was 1.86 µM; in [10] it was 3.94 µM (inactive); in experiment [11], 2.64 µM (inactive); in [12] it was 2.32 µM (inactive). Moreover, the GI50 was 8.18 µM (inactive) in experiment [13]; 2.5 µM (inactive) in [14]; 1.81 µM (inactive) in [15]; 3.62 µM (inactive) in [16]; 1.54 µM (inactive) in [17]; 11.1 µM (inactive) in experiment [18]. Also, the values for the GI50 in experiment [19] and in experiment [20] were 1.88 µM (inactive) and 5.21 µM (inactive), respectively.
For the compound `c1cc2c(cc1[C@@H]1OC[C@@H]3[C@H]1CO[C@H]3c1ccc3c(c1)OCO3)OCO2`, the GI50 is 87.1 µM (inactive) in experiment [1]; > 100 µM (inactive) in experiment [2]; > 100 µM (inactive) in [3]; 62.8 µM (inactive) in [4]; 43.5 µM (inactive) in experiment [5]; 36.2 µM (inactive) in [6]. The GI50 was 44.8 µM (inactive) in experiment [7]; > 100 µM (inactive) in experiment [8]; greater than 100 µM in experiment [9]; 53.3 µM (inactive) in experiment [10]; 16 µM (inactive) in experiment [11]; 46.3 µM (inactive) in experiment [12]. For the same compound, the GI50 in experiment [13] was > 100 µM (inactive); in experiment [14], 54.2 µM (inactive); in experiment [15] it was 13.7 µM (inactive); in experiment [16], 94 µM (inactive); in experiment [17] it was 44 µM (inactive); in experiment [18] it was > 100 µM (inactive). For the same compound, the GI50 in [19] was 34.9 µM (inactive); in experiment [20] it was > 100 µM (inactive).
With `O=C(O)c1ccc(C(=O)O)c(C(=O)Nc2ccc3c(c2)C(=O)c2ccccc2-3)c1`, the GI50 in experiment [1], in experiment [2], in experiment [3], in [4], in experiment [5] and in [6] was > 100 µM (inactive) throughout. The GI50 in [7] was 48 µM (inactive); in experiment [8], > 100 µM (inactive); in [9], greater than 100 µM; in experiment [10] it was > 100 µM (inactive); in experiment [11], > 100 µM (inactive); in experiment [12], > 100 µM (inactive). Besides, the GI50 in [13] is > 100 µM (inactive); in experiment [14] it was > 100 µM (inactive); in [15], > 100 µM (inactive); in experiment [16], > 100 µM (inactive); in experiment [17], 55.6 µM (inactive); in experiment [18], > 100 µM (inactive). Further, the GI50 in [19] and in experiment [20] was > 100 µM (inactive) in each case.
In the case of `O=C(CSc1ncccn1)N/N=C/c1ccccc1OCc1ccccc1`, the GI50 in [1] was 28.4 µM (inactive); in experiment [2], 34.6 µM (inactive); in experiment [3], 28.4 µM (inactive); in [4], 29.2 µM (inactive); in experiment [5], 16.4 µM (inactive); in [6], 17.4 µM (inactive). The GI50 in experiment [7] is 15.3 µM (inactive); in experiment [8], 21.6 µM (inactive); in experiment [9], 17.3 µM; in [10], 32.4 µM (inactive); in experiment [11] it was 14.8 µM (inactive); in experiment [12], 19.5 µM (inactive). Moreover, the GI50 in [13] was 28.2 µM (inactive); in experiment [14], 4.33 µM (inactive); in [15], 21 µM (inactive); in [16], 30.9 µM (inactive); in experiment [17] it was 21.1 µM (inactive); in [18], 21.3 µM (inactive). Further, the GI50 was 17.6 µM (inactive) in experiment [19] and 20.8 µM (inactive) in experiment [20].
